The test system of series [1] is patients. Kind of series: Clinical test on patients with depressions. In kind it is in vivo, human beings. The procedure: The drug according to the present invention was tested in a clinic on patients (561 persons) aged 18 to 72 suffering from depressions of various genesis - endogenous, reactive, neurotic depressions caused by organic injuries of the brain, as well as depressive disturbances in chronical alcoholism and the like.
Clinical tests for different types of depressions were carried out in the following groups of patients:
The drug according to the present invention was administered orally in tablets twice a day - in the morning and in the afternoon. The dose depended on the severity of disease, efficiency and tolerance of the drug.
The treatment was usually started with administration of the drug in single doses of 0.025 g (25 mg) with a gradual increment of the daily dose for 1 to 3 weeks up to 200-300 to 350-400 mg.
The treatment duration ranged from 7 days to 12 weeks, more frequently 40-45 days.
In a number of cases (55 patients) the drug according to the present invention was administered in combination with other psychotropic agents selected mainly from the group of tranquilizers and neuroleptics (tazepam, seduxen, tizercin, and the like).
The efficiency as the drug according to the present invention was assessed with the use of assessment scales.

Series [2] concerns normotensive female rats of the Vistar line. Kind of series: Influence on the pressor effect of tyramine.
Method: The experiments were conducted on conscious normotensive female rats of the Vistar line with a mass of 210-250 g placed under conditions of a free behaviour.
Series [3] deals with mice. Kind of series: Acute toxicity, mice. In kind it is in vivo. An excerpt: The acute and chronical toxicity of the compound according to the present invention was studied on mice, rats and rabbits.
Where [4] appears, read: endogenous depressions (maniac-depressive psychosis, schizophrenia), asthenic or asthenoadynamic syndromes, light and medium severity.

These results are taken from patent publication EP0457908A1, “HYDROCHLORIDE 2,3,3a,4,5,6-HEXAHYDRO-8-CYCLOHEXYL-1H-PYRAZINO (3,2,1-j,k)CARBAZOL, METHOD OF OBTAINING IT AND A PHARMACEUTICAL PREPARATION OF ANTIDEPRESSIVE ACTION BASED ON IT” (priority 1989, dated 1991).

With “2,3,3a,4,5,6-hexahydro-8-cyclohexyl-1H-pyrazino-(3,2,1-j,k)-carbazole hydrochloride [Compound of the present invention]”, in series [1] (depressive disorders of the neurotic and reactive genesis), the “improvement observed, % of cases” value was 80-100%. In series [1] (setting [4]), the “improvement observed, % of the events” value is listed as 37-92% and the “improvement observed, % of the events, on the average” value is recorded as 50%. Also, in series [1] (human, in vivo), the “patients with a previous resistance to another antidepressant therapy in whom the drug was highly effective” value is 6 out of 21 and the toleration by patients result was “good toleration by patients”. Besides, the “enhanced effect of tyramine” value in series [2] (5 mg/kg orally for 5 days) is recorded as “no enhanced effect of tyramine was observed”. In addition, the “time after administration at which the enhanced effect of tyramine was noticed” value in series [2] (25 mg/kg orally) lay within 6 to 18 h. In addition, in series [2] (25 mg/kg orally, tyramine 20 mg/kg orally), the “enhanced the pressor effect of tyramine” value was 2 times. Moreover, in series [3] (oral administration, mice), the LD₅₀ is on record as 1,300 mg/kg. Moreover, the LD₅₀ in series [3] (white mice) is 1.3 g/kg.
